Experiment in all cases: KINOMEscan
Holding throughout (type): binding
Holding throughout (conditions): read-out: % control activity remaining

The target in one assay is T1, ACVR2A (Homo sapiens, UniProt P27037).
T1 construct: purchased Eurofins DiscoverX KINOMEscan

A further assay concerns the target T2, CHEK2 (Homo sapiens, UniProt O96017).
T2 construct: purchased Eurofins DiscoverX KINOMEscan

A further assay deals with T3, CSNK1E (Homo sapiens, UniProt P49674).
T3 construct: purchased Eurofins DiscoverX KINOMEscan
T3 sequence (P49674 whole entry): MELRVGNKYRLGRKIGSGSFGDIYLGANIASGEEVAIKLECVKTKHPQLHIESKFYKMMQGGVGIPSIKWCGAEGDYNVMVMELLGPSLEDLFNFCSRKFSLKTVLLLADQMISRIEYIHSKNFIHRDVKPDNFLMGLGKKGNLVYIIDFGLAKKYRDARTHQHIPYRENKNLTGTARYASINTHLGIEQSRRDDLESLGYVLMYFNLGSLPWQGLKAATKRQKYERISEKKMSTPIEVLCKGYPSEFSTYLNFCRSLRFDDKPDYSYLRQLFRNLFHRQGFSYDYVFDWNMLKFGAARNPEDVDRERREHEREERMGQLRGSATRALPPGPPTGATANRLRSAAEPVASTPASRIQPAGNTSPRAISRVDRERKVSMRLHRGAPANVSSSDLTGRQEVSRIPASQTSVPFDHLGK

Another assay addresses T4, EGFR(L861Q) (Homo sapiens, UniProt P00533, L861Q).
T4 construct: purchased Eurofins DiscoverX KINOMEscan

A further assay concerns the target T5, ERN1 (Homo sapiens, UniProt O75460).
T5 construct: purchased Eurofins DiscoverX KINOMEscan

The target of the next assay is T6, HUNK (Homo sapiens, UniProt P57058).
T6 construct: purchased Eurofins DiscoverX KINOMEscan
T6 sequence (P57058 1-714): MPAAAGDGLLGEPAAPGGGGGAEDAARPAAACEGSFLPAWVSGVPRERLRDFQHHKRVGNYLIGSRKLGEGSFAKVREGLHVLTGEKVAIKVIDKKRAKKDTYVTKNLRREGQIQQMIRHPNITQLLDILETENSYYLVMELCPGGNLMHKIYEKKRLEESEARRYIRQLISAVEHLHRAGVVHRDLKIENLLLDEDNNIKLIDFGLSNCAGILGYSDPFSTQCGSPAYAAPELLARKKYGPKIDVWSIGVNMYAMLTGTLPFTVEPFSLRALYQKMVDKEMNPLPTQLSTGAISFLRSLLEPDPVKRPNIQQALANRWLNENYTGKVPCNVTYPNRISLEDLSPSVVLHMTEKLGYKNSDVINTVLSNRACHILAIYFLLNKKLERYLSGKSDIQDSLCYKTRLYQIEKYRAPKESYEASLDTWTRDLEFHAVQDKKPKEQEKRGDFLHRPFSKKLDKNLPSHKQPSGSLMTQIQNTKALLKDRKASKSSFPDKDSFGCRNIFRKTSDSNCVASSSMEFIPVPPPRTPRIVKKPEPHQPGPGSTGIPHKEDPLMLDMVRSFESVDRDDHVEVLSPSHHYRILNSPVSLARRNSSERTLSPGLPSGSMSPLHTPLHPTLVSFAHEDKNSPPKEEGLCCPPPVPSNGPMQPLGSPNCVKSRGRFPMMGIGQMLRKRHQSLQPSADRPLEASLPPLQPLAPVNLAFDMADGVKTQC

In a further assay the target is T7, IRAK4 (Homo sapiens, UniProt Q9NWZ3).
T7 construct: purchased Eurofins DiscoverX KINOMEscan
T7 sequence (Q9NWZ3 1-460): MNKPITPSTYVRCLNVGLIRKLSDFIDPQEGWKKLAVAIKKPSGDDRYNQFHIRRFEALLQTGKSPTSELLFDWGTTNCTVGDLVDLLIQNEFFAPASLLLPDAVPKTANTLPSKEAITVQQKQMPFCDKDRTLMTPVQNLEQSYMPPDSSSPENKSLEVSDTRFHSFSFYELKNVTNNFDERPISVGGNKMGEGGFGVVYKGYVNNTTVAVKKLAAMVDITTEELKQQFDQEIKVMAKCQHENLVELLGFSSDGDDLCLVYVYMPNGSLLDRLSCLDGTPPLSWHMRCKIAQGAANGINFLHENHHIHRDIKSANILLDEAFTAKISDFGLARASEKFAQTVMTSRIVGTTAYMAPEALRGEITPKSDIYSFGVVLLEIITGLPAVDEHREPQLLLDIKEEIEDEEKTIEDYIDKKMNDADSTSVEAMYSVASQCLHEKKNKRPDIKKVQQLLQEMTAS

The next assay deals with T8, MST1R (Homo sapiens, UniProt Q04912).
T8 construct: purchased Eurofins DiscoverX KINOMEscan
T8 sequence (Q04912 25-1400): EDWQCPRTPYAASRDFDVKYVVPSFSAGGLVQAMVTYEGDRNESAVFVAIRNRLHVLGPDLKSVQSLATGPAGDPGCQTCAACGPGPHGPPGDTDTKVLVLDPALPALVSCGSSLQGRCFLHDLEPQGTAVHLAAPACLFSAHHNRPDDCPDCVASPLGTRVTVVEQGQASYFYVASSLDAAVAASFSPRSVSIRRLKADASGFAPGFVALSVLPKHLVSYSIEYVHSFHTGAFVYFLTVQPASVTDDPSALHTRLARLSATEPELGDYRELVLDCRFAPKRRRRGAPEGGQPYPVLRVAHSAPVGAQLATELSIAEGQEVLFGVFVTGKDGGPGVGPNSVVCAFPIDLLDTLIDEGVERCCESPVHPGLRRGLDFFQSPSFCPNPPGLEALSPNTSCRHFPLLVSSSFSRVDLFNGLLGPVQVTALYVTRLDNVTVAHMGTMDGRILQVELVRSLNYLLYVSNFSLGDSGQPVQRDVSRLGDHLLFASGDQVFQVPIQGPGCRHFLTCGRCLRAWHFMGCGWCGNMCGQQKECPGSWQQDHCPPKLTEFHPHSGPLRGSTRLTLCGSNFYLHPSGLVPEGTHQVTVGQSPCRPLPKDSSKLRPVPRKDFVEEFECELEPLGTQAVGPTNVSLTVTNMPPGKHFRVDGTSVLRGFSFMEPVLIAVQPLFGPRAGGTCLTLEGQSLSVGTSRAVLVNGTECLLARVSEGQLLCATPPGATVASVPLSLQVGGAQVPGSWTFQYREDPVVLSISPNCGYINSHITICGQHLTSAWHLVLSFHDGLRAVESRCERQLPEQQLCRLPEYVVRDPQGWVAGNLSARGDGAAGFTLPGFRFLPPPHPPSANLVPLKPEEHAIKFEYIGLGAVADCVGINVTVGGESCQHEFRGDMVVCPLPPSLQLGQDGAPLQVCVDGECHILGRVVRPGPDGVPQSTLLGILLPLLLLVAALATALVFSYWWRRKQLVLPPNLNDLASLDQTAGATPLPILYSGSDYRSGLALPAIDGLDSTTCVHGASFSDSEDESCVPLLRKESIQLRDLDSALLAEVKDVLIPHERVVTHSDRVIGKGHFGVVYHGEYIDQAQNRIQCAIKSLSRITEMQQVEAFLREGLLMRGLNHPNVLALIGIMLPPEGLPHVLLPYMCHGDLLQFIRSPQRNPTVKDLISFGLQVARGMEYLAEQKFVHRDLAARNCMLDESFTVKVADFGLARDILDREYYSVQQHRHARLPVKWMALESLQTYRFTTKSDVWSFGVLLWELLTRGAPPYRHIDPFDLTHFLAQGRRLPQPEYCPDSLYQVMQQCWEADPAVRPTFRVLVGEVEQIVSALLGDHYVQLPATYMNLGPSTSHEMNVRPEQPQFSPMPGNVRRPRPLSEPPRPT

The target in the next assay is T9, OSR1 (Homo sapiens, UniProt O95747).
T9 construct: purchased Eurofins DiscoverX KINOMEscan
T9 sequence (O95747 whole entry): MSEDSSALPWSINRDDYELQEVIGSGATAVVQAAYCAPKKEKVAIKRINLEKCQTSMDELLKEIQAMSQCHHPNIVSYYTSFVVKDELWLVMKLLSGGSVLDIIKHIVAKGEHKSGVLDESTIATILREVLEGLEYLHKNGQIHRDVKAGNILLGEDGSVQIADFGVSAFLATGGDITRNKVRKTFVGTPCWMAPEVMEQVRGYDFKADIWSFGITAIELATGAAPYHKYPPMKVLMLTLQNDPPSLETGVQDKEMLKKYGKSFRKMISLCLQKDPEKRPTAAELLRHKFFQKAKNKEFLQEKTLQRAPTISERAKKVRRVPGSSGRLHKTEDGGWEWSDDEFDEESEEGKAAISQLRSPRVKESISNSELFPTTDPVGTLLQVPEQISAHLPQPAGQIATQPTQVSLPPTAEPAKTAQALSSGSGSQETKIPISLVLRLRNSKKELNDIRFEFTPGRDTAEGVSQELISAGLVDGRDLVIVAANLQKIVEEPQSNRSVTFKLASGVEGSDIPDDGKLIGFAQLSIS

Another assay deals with T10, PAK6 (Homo sapiens, UniProt Q9NQU5).
T10 construct: purchased Eurofins DiscoverX KINOMEscan
T10 sequence (Q9NQU5 whole entry): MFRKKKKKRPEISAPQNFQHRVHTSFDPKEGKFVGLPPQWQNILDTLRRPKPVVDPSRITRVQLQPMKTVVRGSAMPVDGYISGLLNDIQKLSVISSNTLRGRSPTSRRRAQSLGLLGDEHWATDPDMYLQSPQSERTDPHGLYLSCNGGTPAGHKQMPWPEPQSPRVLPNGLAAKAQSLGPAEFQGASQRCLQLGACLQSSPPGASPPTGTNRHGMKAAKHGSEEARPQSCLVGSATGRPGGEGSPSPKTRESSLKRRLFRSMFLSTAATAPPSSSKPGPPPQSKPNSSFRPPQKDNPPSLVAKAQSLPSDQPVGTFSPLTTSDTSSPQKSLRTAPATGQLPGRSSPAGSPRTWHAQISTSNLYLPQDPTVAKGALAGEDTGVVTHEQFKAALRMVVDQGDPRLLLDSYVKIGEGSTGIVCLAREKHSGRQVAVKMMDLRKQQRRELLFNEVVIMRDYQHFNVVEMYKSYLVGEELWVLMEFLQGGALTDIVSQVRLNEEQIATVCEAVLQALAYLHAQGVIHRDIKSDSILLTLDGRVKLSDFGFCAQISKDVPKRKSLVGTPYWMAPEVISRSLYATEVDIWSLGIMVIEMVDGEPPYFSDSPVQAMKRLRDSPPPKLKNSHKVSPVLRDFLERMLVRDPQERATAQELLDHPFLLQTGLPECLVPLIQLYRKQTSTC

The target in another assay is T11, SGK2 (Homo sapiens, UniProt Q9HBY8).
T11 construct: purchased Eurofins DiscoverX KINOMEscan
T11 sequence (Q9HBY8 1-367): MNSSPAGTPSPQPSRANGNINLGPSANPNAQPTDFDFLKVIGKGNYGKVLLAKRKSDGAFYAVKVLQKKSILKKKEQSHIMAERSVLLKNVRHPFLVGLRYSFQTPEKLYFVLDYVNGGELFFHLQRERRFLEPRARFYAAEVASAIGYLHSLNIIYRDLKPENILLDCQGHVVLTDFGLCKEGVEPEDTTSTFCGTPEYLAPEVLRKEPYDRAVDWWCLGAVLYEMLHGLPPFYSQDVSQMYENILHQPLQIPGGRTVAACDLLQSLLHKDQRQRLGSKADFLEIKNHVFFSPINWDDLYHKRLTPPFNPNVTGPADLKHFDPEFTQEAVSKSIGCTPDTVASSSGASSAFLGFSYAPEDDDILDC

The target in another assay is T12, TYRO3 (Homo sapiens, UniProt Q06418).
T12 construct: purchased Eurofins DiscoverX KINOMEscan
T12 sequence (Q06418 41-890): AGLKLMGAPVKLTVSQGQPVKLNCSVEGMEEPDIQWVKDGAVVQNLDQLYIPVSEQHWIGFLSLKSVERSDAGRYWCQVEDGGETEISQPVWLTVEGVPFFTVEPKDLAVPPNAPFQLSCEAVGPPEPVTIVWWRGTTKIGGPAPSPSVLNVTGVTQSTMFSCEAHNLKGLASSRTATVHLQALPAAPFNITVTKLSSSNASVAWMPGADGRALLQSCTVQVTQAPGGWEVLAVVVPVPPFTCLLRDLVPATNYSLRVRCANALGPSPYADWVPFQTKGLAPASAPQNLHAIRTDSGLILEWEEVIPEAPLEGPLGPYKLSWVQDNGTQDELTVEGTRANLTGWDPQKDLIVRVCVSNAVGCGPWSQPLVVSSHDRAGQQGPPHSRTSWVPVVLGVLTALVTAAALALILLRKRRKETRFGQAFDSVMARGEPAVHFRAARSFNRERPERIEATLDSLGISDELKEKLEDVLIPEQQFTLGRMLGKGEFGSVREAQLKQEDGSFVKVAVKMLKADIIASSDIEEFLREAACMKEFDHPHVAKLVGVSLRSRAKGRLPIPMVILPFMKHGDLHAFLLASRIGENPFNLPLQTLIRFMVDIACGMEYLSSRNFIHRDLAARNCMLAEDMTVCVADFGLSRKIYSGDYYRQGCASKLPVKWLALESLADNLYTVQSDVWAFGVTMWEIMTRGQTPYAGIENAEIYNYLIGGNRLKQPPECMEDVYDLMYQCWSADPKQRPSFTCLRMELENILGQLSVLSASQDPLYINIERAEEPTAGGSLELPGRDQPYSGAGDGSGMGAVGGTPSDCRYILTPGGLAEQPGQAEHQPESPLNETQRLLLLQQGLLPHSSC

T1 sequence (P27037 20-513): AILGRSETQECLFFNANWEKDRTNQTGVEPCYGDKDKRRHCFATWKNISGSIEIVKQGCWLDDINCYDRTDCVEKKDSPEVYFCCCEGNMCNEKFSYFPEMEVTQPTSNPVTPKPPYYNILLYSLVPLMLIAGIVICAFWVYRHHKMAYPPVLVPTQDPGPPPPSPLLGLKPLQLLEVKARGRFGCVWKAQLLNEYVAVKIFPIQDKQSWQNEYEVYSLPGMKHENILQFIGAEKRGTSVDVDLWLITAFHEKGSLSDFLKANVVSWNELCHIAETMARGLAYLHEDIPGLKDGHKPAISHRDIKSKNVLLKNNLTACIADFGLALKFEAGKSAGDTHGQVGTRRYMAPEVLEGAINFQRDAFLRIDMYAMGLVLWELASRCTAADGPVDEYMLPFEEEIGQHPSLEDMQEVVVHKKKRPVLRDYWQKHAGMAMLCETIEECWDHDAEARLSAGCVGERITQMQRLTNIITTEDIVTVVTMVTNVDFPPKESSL
T5 sequence (O75460 19-977): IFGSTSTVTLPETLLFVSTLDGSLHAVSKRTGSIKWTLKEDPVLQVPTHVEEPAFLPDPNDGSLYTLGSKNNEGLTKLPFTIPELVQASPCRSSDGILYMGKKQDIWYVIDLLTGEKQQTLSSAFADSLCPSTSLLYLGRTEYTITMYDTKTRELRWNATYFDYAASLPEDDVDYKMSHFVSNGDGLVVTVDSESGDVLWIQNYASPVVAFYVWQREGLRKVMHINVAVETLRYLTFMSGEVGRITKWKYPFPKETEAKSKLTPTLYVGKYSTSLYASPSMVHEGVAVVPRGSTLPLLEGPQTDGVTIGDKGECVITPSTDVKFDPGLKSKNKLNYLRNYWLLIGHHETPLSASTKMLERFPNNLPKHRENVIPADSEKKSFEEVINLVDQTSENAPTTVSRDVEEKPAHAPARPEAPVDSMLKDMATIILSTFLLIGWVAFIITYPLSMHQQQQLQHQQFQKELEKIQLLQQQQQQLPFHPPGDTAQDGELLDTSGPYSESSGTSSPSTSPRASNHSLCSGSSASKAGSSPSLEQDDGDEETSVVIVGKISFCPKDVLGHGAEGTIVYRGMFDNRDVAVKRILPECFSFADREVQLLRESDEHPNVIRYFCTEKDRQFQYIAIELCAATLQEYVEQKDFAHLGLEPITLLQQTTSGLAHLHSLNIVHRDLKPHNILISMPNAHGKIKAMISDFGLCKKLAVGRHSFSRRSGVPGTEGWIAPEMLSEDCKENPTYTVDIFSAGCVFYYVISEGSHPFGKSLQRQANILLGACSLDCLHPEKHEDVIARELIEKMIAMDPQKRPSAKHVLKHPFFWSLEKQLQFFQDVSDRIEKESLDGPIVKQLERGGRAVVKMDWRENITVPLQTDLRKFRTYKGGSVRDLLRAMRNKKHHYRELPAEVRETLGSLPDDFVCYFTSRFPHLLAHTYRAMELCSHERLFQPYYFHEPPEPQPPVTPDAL
T2 sequence (O96017 whole entry): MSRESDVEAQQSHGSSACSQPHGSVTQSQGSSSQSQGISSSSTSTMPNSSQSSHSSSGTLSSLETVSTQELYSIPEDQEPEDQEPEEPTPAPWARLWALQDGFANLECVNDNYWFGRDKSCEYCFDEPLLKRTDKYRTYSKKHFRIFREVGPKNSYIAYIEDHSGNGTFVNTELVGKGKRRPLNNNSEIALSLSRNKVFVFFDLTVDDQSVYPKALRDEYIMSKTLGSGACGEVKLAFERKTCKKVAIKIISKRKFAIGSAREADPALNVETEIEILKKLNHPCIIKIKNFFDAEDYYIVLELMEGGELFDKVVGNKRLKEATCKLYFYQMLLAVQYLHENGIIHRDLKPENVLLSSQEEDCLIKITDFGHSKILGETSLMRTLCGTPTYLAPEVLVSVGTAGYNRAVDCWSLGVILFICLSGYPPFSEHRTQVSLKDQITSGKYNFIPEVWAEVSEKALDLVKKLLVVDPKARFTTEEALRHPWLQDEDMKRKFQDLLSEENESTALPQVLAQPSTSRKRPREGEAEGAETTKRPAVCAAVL

Take `Clc1cc(NCC2CC2)c2ncc(-c3ccc4[nH]ncc4c3)n2n1` [compound 2, 6-Chloro-N-(cyclopropylmethyl)-3-(1H-indazol-5-yl)imidazo[1,2-b]pyridazin-8-amine]: the remaining binding at 1 µM came to 100% on ACVR2A; 88% on CHEK2; 71% at CSNK1E; 82% at EGFR(L861Q); 69% on ERN1; 90% at HUNK. The remaining binding at 1 µM was determined as 92% at IRAK4; 99% at MST1R; 79% on OSR1; 100% at PAK6; 89% on SGK2; 69% on TYRO3.

For the compound `O=C(CN1CCOCC1)N[C@H]1CC[C@H](Nc2cc(Cl)nn3c(-c4ccc5[nH]ncc5c4)cnc23)CC1` [compound 26], the remaining binding at 1 µM amounted to 100% at ACVR2A; 61% at CHEK2; 44% at CSNK1E; 100% on EGFR(L861Q); 41% at ERN1; 100% on HUNK. Besides, the remaining binding at 1 µM was found to be 85% on IRAK4; 64% at MST1R; 99% at OSR1; 98% at PAK6; 100% on SGK2; 86% on TYRO3.

For the compound `CN1CCC(CNc2cc(Cl)nn3c(-c4cc5nc(Nc6ccccc6)[nH]c5cc4F)cnc23)CC1` [compound 31, 6-Chloro-3-(6-fluoro-2-(phenylamino)-1H-benzo[d]imidazol-5-yl)-N-((1-methylpiperidin-4-yl)methyl)imidazo[1,2-b]pyridazin-8-amine], the remaining binding at 1 µM at ACVR2A was 97%; at CHEK2, 100%; at CSNK1E, 100%; on EGFR(L861Q), 100%; on ERN1, 33%; at HUNK it was 92%. Further, the remaining binding at 1 µM on IRAK4 came out at 91%; on MST1R it was 77%; at OSR1, 100%; on PAK6, 97%; at SGK2 it was 83%; at TYRO3, 99%.

These data come from PMC6437697 (Journal of Medicinal Chemistry, 2019).
